Assay results taken from PMC9866630, “Synthesis, Biological Evaluation and Molecular Modeling Studies of Naphthoquinone Sulfonamides and Sulfonate Ester Derivatives as P2X7 Inhibitors” (Molecules, 2023).

Tests used:
[1] = test system: P2X7R; design: method as in PMID 24314880; details: read-out: EC50 for P2X7R activation; cited from earlier work
[2] = target: T1, hP2X7R (Homo sapiens, UniProt Q99572); experiment: ATP-induced IL-1β release ELISA in THP-1 cells; type: cell-based; details: human THP-1 cells, LPS 4 h, ATP 30 min
T1 construct: The monocytic THP-1 cell line used in this experiment was donated; endogenous in cells; host or cells: THP-1 human monocytic cell line
T1 sequence (Q99572 1-595): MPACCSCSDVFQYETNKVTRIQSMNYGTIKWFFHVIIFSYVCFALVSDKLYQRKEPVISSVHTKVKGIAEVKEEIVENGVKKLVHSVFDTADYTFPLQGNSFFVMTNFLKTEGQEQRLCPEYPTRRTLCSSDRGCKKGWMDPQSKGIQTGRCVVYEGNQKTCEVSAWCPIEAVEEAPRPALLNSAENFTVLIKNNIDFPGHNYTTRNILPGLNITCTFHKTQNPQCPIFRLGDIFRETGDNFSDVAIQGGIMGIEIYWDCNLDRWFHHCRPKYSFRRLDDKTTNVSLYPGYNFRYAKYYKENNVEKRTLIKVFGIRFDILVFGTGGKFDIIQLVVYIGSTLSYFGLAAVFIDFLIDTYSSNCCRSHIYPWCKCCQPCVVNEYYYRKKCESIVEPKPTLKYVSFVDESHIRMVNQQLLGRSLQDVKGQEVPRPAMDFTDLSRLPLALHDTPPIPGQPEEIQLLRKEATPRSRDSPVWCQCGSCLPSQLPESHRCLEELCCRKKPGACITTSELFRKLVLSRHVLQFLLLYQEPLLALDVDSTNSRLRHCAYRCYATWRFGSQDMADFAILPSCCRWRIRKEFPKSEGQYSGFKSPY
Description: (§1) The monocytic THP-1 cell line used in this experiment was donated by the Laboratory of Applied Pharmacology, Institute of Drug Technology (Farmanguinhos), Rio de Janeiro, Brazil. Cells were plated at 2 × 10^5 cells/well in 96-well culture plates maintained in RPMI containing 10% fetal bovine serum (FBS), penicillin (100 U/mL), and streptomycin ([…]) in a humidified 5% CO2 atmosphere at 37 °C. Then, the cells were primed with Escherichia coli lipopolysaccharide (LPS, serotype 0127: B8) four hours before ATP stimulation for 30 min. Mouse peritoneal macrophages were primed with 10 ng/mL interferon-γ (IFN-γ) for 24 h and posteriorly stimulated with Escherichia coli lipopolysaccharide (LPS, serotype 0127: B8). The P2X7R antagonist A740003 and naphthoquinone derivatives were preincubated for 30 min before ATP addition. IL-1β was determined according to a standard kit (Bioscience, San Diego, CA, USA and Abcam, Cambridge Biomedical Campus, Cambridge, UK).

[3] = target: T2, mP2X7R (Mus musculus, UniProt Q9Z1M0); experiment: ATP-induced IL-1β release ELISA in mouse peritoneal macrophages; type: cell-based; details: LPS priming, ATP 30 min
T2 construct: P2X7 receptor expressed in peritoneal macrophages; endogenous in cells; host or cells: mouse peritoneal macrophages (primary)
T2 sequence (Q9Z1M0 1-595): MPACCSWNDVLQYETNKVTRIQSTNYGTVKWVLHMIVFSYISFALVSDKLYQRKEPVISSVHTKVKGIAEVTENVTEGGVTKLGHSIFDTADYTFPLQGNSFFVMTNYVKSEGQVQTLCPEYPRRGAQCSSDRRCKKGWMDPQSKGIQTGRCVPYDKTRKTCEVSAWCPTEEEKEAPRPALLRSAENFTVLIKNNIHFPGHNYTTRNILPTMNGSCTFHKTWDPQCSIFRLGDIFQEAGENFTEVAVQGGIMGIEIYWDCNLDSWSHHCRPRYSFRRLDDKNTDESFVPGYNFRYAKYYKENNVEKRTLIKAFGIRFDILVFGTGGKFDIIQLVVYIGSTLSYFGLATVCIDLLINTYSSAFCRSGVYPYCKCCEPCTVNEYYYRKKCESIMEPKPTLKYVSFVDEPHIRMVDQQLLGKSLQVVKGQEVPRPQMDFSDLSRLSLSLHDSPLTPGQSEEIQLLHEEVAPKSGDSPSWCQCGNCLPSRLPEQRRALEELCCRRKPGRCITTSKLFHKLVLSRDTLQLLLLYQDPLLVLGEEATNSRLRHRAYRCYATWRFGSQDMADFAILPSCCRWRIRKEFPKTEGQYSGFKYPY
Description: as §1

[4] = target: T3, P2X7 receptor (Mus musculus, UniProt Q9Z1M0); experiment: ATP-induced propidium iodide dye uptake assay (P2X7R-associated pore formation); type: cell-based; details: pretreatment 10 min, 5 mM ATP 15 min, peritoneal macrophages; for Inhibition of ATP-induced PI uptake / inhibition at 10 µM: 10 µM; for inhibition at 10 µM: P2X7, read-out: Inhibition of ATP-induced PI uptake; for IC50: read-out: IC50 ATP-induced PI uptake
T3 construct: P2X7 receptor expressed in peritoneal macrophages; endogenous in cells; host or cells: mouse peritoneal macrophages (primary)
T3 sequence (Q9Z1M0 1-595): T2 sequence (Q9Z1M0 1-595)
Description: (§2) The animals used in these experiments were furnished by the animal breeding unit at Pavilion Hélio and Peggy Pereira at FIOCRUZ/IOC. The Institutional Animal Ethics Committee approved all experimental protocols under number L039-2016. Peritoneal macrophages were isolated from euthanized mice (weighing between 20 and 30 g) by injection of 10 mL phosphate-buffered saline (PBS) into the peritoneum of each animal. Then, the solution was completely removed from the peritoneal cavity using a syringe and transferred to 50 mL sterile tubes. Tubes were centrifuged at 1500 rpm for 5 min. The supernatant was discarded, and the pellet was resuspended in RPMI medium supplemented with 10% SFB and 1% antibiotic. The cells were counted and seeded in plates. After 40 min, the supernatant from each well was discarded to remove cells other than macrophages, and then RPMI medium was added. The macrophages were maintained in RPMI medium supplemented with 10% SFB and 1% antibiotic in a humid atmosphere at 37 °C containing 5% CO2 during the experiments.
To evaluate P2X7R-associated pore formation, a propidium iodide (PI) uptake assay was used. Peritoneal macrophages (3.0 × 10^5/well) were incubated with naphthoquinone derivatives and the inhibitor BBG (Brilliant Blue G, Sigma-Aldrich) at 10 µM and 750 nM, respectively, for 10 min. Subsequently, cells were exposed to 5 mM ATP for 15 min, and in the last 5 min, they were incubated with 1 µM PI dye. At the end of the incubation period, fluorescence was measured using a SpectraMax M5 spectrophotometer at 493/636 nm (excitation/emission). Compounds with inhibition values higher than 50% were selected to evaluate their inhibitory activity at varying concentrations. The inhibition curve was obtained using compounds at concentrations of 0.01 µM, 1 µM, 10 µM, 50 µM, and 100 µM. The controls and the procedure were the same.

[5] = test system: mouse peritoneal cells; experiment: LDH release cytotoxicity assay; type: cell-based; details: 24 h, increasing concentrations
Description: as §2
Peritoneal macrophages (3.0 × 10^5 cells/well) were grown in 96-well plates and kept in an oven at 37 °C under a 5% CO2 atmosphere. […] The assay was finished by the addition of the LDH kit’s reagent (Kit CytoTox 96® Non-Radioactive Cytotoxicity Assay, Promega, Madison, WI, USA), prepared according to the manufacturer’s instructions. After 30 min of reaction, a stop solution was added, and the absorbance was measured at 490 nm.

[6] = test system: ATP-induced paw edema; experiment: ATP-induced paw edema assay; type: in vivo, Swiss Webster mice; details: mice, intraperitoneal pretreatment, intra-plantar ATP, edema measured 30 min after ATP
Description: Paw edema in mice was induced by intra-plantar administration of ATP (10 mg/paw) for 30 min. Animals were pretreated intraperitoneally with the standard P2X7R antagonist A740003 (1 mg/kg) and the selected compounds PS01, PS02, PS03, PS09, and PS10 (1 mg/kg) for 60 min before ATP administration. Edema formation was determined with a mouse plethysmometer (UGO Basile, Gemonio, Italy) before ATP injection compared with saline injection in the contralateral paw edema.

Structure (SMILES) | IC50 [2] | IC50 [3] | Inhibition of ATP-induced PI uptake [4] | also measured
Nc1ncnc2c1ncn2[C@@H]1O[C@H](COP(=O)(O)OP(=O)(O)OP(=O)(O)O)[C@@H](O)[C@H]1O [ATP, Adenosine triphosphate] | – | – | – | EC50 [1]: > 100000 nM
CCOc1ccc(Nc2ccc(/C(=C3C=C/C(=[N+](/CC)Cc4cccc(S(=O)(=O)[O-])c4)C=C/3C)c3ccc(N(CC)Cc4cccc(S(=O)(=O)O)c4)cc3C)cc2)cc1 [BBG, Brilliant Blue G, reference compound] | 16 ± 2 µM | 24 ± 3 µM | – | –
COc1ccc(CC(=O)NC(N=C(NC#N)Nc2cccc3ncccc23)C(C)(C)C)cc1OC (stereo not shown) [Compound A740003, reference compound] | 0.85 ± 0.1 µM | 0.9 ± 0.1 µM | inhibited the ATP effect | –
O=C1C=C(Nc2ccc(NS(=O)(=O)c3ccccc3)cc2)C(=O)c2ccccc21 [PS01] | 4 ± 2 µM | 5 ± 1 µM | – | IC50 values (CC50), LDH activity [5]: 201000 ± 11000 nM; ID50 ATP−induced edema formation [6]: 0.128 ± 0.016 µg/kg; inhibition at 10 µM [4]: > 50%; IC50 [4]: 1000 ± 100 nM
O=C1C=C(Nc2ccc(NS(=O)(=O)c3ccc(F)cc3)cc2)C(=O)c2ccccc21 [PS02] | 3 ± 0.3 µM | 3 ± 0.2 µM | – | IC50 values (CC50), LDH activity [5]: 298000 ± 16000 nM; ID50 ATP−induced edema formation [6]: 0.093 ± 0.008 µg/kg; inhibition at 10 µM [4]: > 50%; IC50 [4]: 300 ± 3 nM
Cc1ccc(S(=O)(=O)Nc2ccc(NC3=CC(=O)c4ccccc4C3=O)cc2)cc1 [PS03] | 1 ± 0.4 µM | 1.5 ± 0.4 µM | – | IC50 values (CC50), LDH activity [5]: 322000 ± 20000 nM; ID50 ATP−induced edema formation [6]: 0.067 ± 0.005 µg/kg; inhibition at 10 µM [4]: > 50%; IC50 [4]: 70 ± 3 nM
O=C1C=C(Nc2ccc(NS(=O)(=O)c3ccc4ccccc4c3)cc2)C(=O)c2ccccc21 [PS04] | – | – | did not show inhibitory effects | –
O=C1C=C(Nc2ccc(NS(=O)(=O)c3ccc([N+](=O)[O-])cc3)cc2)C(=O)c2ccccc21 [PS05] | – | – | did not show inhibitory effects | –
O=C1C(Cl)=C(Nc2ccc(NS(=O)(=O)c3ccccc3)cc2)C(=O)c2ccccc21 [PS06] | – | – | did not show inhibitory effects | –
Cc1ccc(S(=O)(=O)Nc2ccc(NC3=C(Cl)C(=O)c4ccccc4C3=O)cc2)cc1 [PS07] | – | – | did not show inhibitory effects | –
O=C1C(Cl)=C(Nc2ccc(NS(=O)(=O)c3ccc(F)cc3)cc2)C(=O)c2ccccc21 [PS08] | – | – | did not show inhibitory effects | –
O=C1C(Cl)=C(Nc2ccc(NS(=O)(=O)c3ccc4ccccc4c3)cc2)C(=O)c2ccccc21 [PS09] | 0.02 ± 0.002 µM | 0.09 ± 0.01 µM | – | IC50 values (CC50), LDH activity [5]: 401000 ± 18000 nM; ID50 ATP−induced edema formation [6]: 0.0098 ± 0.0007 µg/kg; inhibition at 10 µM [4]: > 50%; IC50 [4]: 8 ± 0.1 nM
O=C1C(Cl)=C(Nc2ccc(NS(=O)(=O)c3ccc([N+](=O)[O-])cc3)cc2)C(=O)c2ccccc21 [PS10] | 0.3 ± 0.06 µM | 0.7 ± 0.1 µM | – | IC50 values (CC50), LDH activity [5]: 351000 ± 21000 nM; ID50 ATP−induced edema formation [6]: 0.0136 ± 0.016 µg/kg; inhibition at 10 µM [4]: > 50%; IC50 [4]: 10 ± 2 nM
NC1=CC(=O)c2cccc(OS(=O)(=O)c3ccccc3)c2C1=O [PS11] | – | – | did not show inhibitory effects | –
Cc1ccc(S(=O)(=O)Oc2cccc3c2C(=O)C(N)=CC3=O)cc1 [PS12] | – | – | did not show inhibitory effects | –
NC1=CC(=O)c2cccc(OS(=O)(=O)c3ccc(F)cc3)c2C1=O [PS13] | – | – | did not show inhibitory effects | –
NC1=CC(=O)c2cccc(OS(=O)(=O)c3ccc4ccccc4c3)c2C1=O [PS14] | – | – | did not show inhibitory effects | –
NC1=CC(=O)c2cccc(OS(=O)(=O)c3ccc([N+](=O)[O-])cc3)c2C1=O [PS15] | – | – | did not show inhibitory effects | –
